# Source: a melting point compilation (Tetko et al.; mined from patent text by program, amines drawn as free bases though some values may be those of a salt)
row,Compound,melting point
1,O=C1NC(=O)C(Cc2ccc(OCCNc3ncccn3)cc2)S1 (centres undefined),173 °C
2,Cc1cc(O)c(C(=O)CCC(F)(F)F)c(=O)o1,104 °C
3,CCCCCCCCCCCCCCCCC(O)CCCOC1CCCCO1 (centres undefined),39 to 43 °C
4,CC(C)(O)c1cc(Br)cnc1N,107 to 108 °C
5,COC(=O)C=Cc1cnc(C(=O)OC)cc1C(=O)OC,126 to 128 °C
6,Cn1cnc2c(OC3SCC(O)C(O)C3O)cccc21 (centres undefined),180 °C
7,O=c1c2cccnc2c(-c2ccccc2)cn1Cc1ccncc1,200 °C
8,O=C(OCC(=O)N1CCCC1=O)c1ccccc1,83 to 84 °C
9,CCc1cc2c(cc1O)C(C)(C)CCC2(C)C,88 to 89 °C
10,CCC1=Nc2cccc(Cl)c2C(=O)C1,236 to 239 °C
11,CC1(C)NC2C(=O)N(C(O)C(=O)OCC(Cl)(Cl)Cl)C2S1 (centres undefined),125 to 127 °C
12,CC1(C)SC2C(NC(=O)Nc3ccccc3)C(=O)N2C1c1nnn[nH]1 (centres undefined),110 to 120 °C
13,COc1cc(C(C)=NOCc2ccc3nonc3c2)ccc1F,65 °C
14,COC(=O)c1cc(C(=O)c2cccc(Cl)c2)cn1C,126 °C
15,COc1ccc(Nc2nc(Cl)nc(OCC3CCCCC3)n2)cc1F,98 °C
16,COC(CN(C)C(=O)Nc1cc(C(C)(C)C)on1)OC,80 to 84 °C
17,COc1ccc(C(=O)c2ccc(OC)cc2F)c(C)c1,88 to 90 °C
18,CCOC(=O)CC(=O)c1cc(F)c(S(=O)c2ccccc2)nc1Nc1ccc(F)cc1F (centres undefined),105 to 106 °C
19,O=[N+]([O-])c1ccc(CCCCCCCCCCCCCCOCCCCCCCCCCCCCCc2ccc([N+](=O)[O-])cc2)cc1,57 to 60 °C
20,O=C1C(=O)N(c2ccccc2)C(=O)N1c1ccccc1,203 °C
21,Cc1oc(-c2ccc(F)cc2)cc1CC(=O)O,52 to 53 °C
22,CC(=O)C(Cc1ccc(O)cc1)C(C)=O,93 to 94.5 °C
23,CNC(=O)C1CN(CCCC(c2ccc(F)cc2)c2ccc(F)cc2)CCN1CC(=O)Nc1c(C)cc(N)cc1C (centres undefined),112 °C
24,CC(C)=CCN1CC(=O)Nc2cc(S(=O)(=O)Oc3ccccc3)ccc21,132 °C
25,O=C(CN1C(=O)C2(COc3cc4c(cc32)CCO4)c2c(-c3cncnc3)cccc21)Nc1ccccc1F (centres undefined),229 to 230 °C
26,O=C(O)c1nc2n(n1)-c1cccnc1N(c1ccc(Cl)cc1)C2,234 to 237 °C
27,CS(=O)(=O)c1ccc(-n2cc(CC(=O)O)nc2-c2ccc(Cl)cc2)cc1,263 to 264 °C

row,Compound,melting point
1,O=[N+]([O-])c1cc(F)ccc1Sc1ccccc1,66 to 67 °C
2,Clc1ccc2[nH]c3c4c(Cl)cccc4nc-3cc2c1,221 to 222 °C
3,N#Cc1ccc(-c2cn(-c3ccc(I)cc3)c(SCC(O)CO)n2)cc1 (centres undefined),160 to 174 °C
4,COc1cnc(N2CCN(c3ccc(N)cc3)CC2)nc1,125 °C
5,CCOC(=O)c1cn(C2CC2)c2occc2c1=O,200 to 201 °C
6,CC1CS(=O)C(c2cccs2)=NO1 (centres undefined),114 to 115 °C
7,Cc1cc(C)n(-c2nc(Nc3ccc(Cl)cc3)c3ccccc3n2)n1,209 to 211 °C
8,CCOC(=O)[C@@H]1C[C@H](Br)CN1C(=O)OC(C)(C)C,32 to 34 °C
9,CCOC(=O)NNC(=O)Cc1noc(C)n1,122 to 124 °C
10,COc1ccc2c(c1)C(=NOCCCN)c1c-2c(N2CCNCC2)nc2ccccc12,89 to 90 °C
11,CN1CCN(Cc2nnc3n2-c2ccc(Cl)cc2C(c2ccccc2)=NC3)CC1,203 to 206 °C
12,CCOC(=O)C1(C)C=C(O)c2c(sc3c2CCC2(C3)OCCO2)N1 (centres undefined),94 to 95 °C
13,COc1ccc2c3c1OC1C(=O)C(C)(C)C(C)C4C(C2)N(C)CCC314 (centres undefined),246 to 248 °C
14,O=C(O)CCSSc1ccc([N+](=O)[O-])cc1,98 to 100 °C
15,CCOC(=O)c1ncc2[nH]c3ccc(C4CCCCC4)cc3c2c1COC,254 to 266 °C
16,CS(=O)(=O)c1ccc(C2=C(c3ccc(-c4cscn4)cc3)C(=O)OC2)cc1F,218 °C
17,O=c1c2ccc3[nH]ccc3c2ccn1Cc1ccc(F)cc1,171 to 173 °C
18,COC(=O)c1ccc(Cl)c(Cn2nnn(C3CC3)c2=O)c1Cl,99 to 100 °C
19,COC(=O)CCCCCCC1=CCC(O)C1=O (centres undefined),62.5 to 63.5 °C
20,CC(C)(CNc1ccnc2cc(Cl)ccc12)NCc1ccncc1,157 to 159 °C
21,NS(=O)(=O)c1cc2cc(CO)ccc2s1,174 to 176 °C
22,COc1ccc2cc(-c3cn([C@H]4CN5CCC4CC5)nn3)ccc2c1,186 °C
23,CCCOC[C@]1(OC)CC[C@H]2[C@@H]3CCC4=CC(=O)CCC4=C3[C@@H](c3ccc(C(C)=O)cc3)C[C@@]21C,118 to 120 °C
24,OC(c1ccc(F)cc1)C1(n2cncn2)CC1 (centres undefined),104 to 106 °C
25,Cc1ccc(NC(=O)c2ccc(CN3CCN(C)CC3)c(C(F)(F)F)c2)cc1Nc1nc(-c2ccncc2)cs1,226 to 227 °C
26,Nc1sc2c(c1C(=O)c1ccc3ccccc3c1)CCN(Cc1ccccc1F)C2,183 to 185 °C

# Further lines, results first:
row,melting point,Compound
1,86 to 88 °C,c1cc(CN2CCCCC2)ccc1CN1CCCCC1
2,300 °C,CCn1nc(C)c2c1C(=NC#N)NCC(c1ccc(O)cc1)=N2
3,127 to 128 °C,CC(=O)SCCC(=O)NC1(C(=O)O)CCCC1
4,140 to 142 °C,COc1cc(Nc2c(C#N)cnc3cc(/C=C/CCN4CCCCC4)c(OC)cc23)c(Cl)cc1Cl
5,69 to 70 °C,CCCCOC(=O)C1=C(C)NC(C)=C(C(=O)OC)C1c1cccc([N+](=O)[O-])c1 (centres undefined)
6,160 to 162 °C,COc1ccc2c(c1)S(=O)(=O)N=CN2CCO
7,85 to 86 °C,c1ccc(C(=C2CCNCC2)c2ccccc2)cc1
8,130 °C,CCCCNC(=S)N1CCc2[nH]cnc2C1
9,232 °C,CCc1nc2c(o1)C(=O)C=C(Nc1ccc(F)cc1)C2=O
10,76 °C,CCCCCC1CCc2c3c(c(F)c(F)c2O1)OC(C)C3 (centres undefined)
11,222 to 224 °C,O=C(Nc1ccc2cc(CN3CCCC3)cnc2c1)N1CCC(c2ccccc2)CC1
12,177 °C,O=S(=O)(Cc1ccc(Cl)c(Cl)c1)Cc1ccc(Cl)c(Cl)c1
13,134 to 135 °C,CC(=O)CCOc1c(-c2ccc(S(C)(=O)=O)cc2)cnn(-c2ccc(F)c(F)c2)c1=O
14,162 to 164 °C,COc1ccc2nc(Cl)cc(CCNC(C)=O)c2c1
15,> 280 °C,O=[N+]([O-])c1ccc(NN=C2c3ncc(Cl)cc3C=CC2Cl)c([N+](=O)[O-])c1 (centres undefined)
16,284 to 286 °C,O=S1(=O)N=C(c2ccc(Cl)cc2)N(c2cc(Cl)cc(Cl)c2)c2ccncc21
17,116 °C,COc1ccc(CC2(C)CN(C(c3ccccc3)c3ccccc3)CCN2C(C)=O)cc1OC (centres undefined)
18,131 to 133 °C,CC(c1ccc(-c2ccccc2F)cc1)S(=O)CC(=O)N(C)C (centres undefined)
19,185 to 186 °C,CCC(=O)Nc1cccc(NC(=O)C2CC2)c1
20,148 to 150 °C,CON(c1ccc([N+](=O)[O-])cc1C#N)S(=O)(=O)c1ccc(C)cc1
21,247 to 248 °C,Cc1sc(-c2cc([N+](=O)[O-])cc([N+](=O)[O-])c2)nc1O
22,111 to 123 °C,COc1cc2c(cc1Nc1ncc(Cl)c(Nc3ccccc3S(C)(=O)=O)n1)CCN(CC(N)=O)CC2
23,70 to 72 °C,c1ccc(CNc2cc(N3CCCC3)nc(N3CCCC3)n2)cc1
24,305 to 307 °C,O=c1cc(-c2ccncc2)nc2n1CC(O)CN2 (centres undefined)
25,60 to 65 °C,CN(NC(=O)OC(C)(C)C)C(=O)OCc1ccccc1
26,188 to 190 °C,NN1CCN(C2c3ccccc3C=C(Br)c3ccccc32)CC1 (centres undefined)

row,melting point,Compound
1,173 °C,COC1(N(C)C)C=CC(C(=O)Nc2ccccc2)=CC1 (centres undefined)
2,288 to 290 °C,Nc1cc(Oc2ccc3c(C(=O)O)cccc3c2)ncn1
3,243 to 245 °C,COc1cccc2c(NCc3ccccc3)nc(N)nc12
4,94 to 96 °C,Nc1c(Cl)cc(C(O)CNCCCCCCOCCc2ccccn2)cc1Cl (centres undefined)
5,151 to 154 °C,O=[N+]([O-])c1ccc2nc3c(nc2c1)OCC1CCCCN31 (centres undefined)
6,138 to 140 °C,ClCc1cc2ccccc2nc1I
7,157 to 160 °C,O=c1[nH]nc(-c2ccccc2Nc2cccc(C(F)(F)F)c2)s1
8,187 to 188 °C,CCOC(=O)c1cn([C@@H]2C[C@@H]2F)c2c(C)c(F)ccc2c1=O
9,200 to 202 °C,CN1C2=NCCN2C(=O)c2cc(Cl)ccc21
10,82 to 84 °C,CC(=O)Oc1c(C)c2c(c(C)c1OC(C)=O)SC(C)O2 (centres undefined)
11,176 to 177 °C,C=CCOC(=O)c1ccc(NC(=O)C(=NO)c2ccc3c(c2)C(C)(C)CCC3(C)C)cc1
12,114 °C,Cn1c([N+](=O)[O-])cnc1-c1cc(CCC(=O)O)on1
13,81 to 83 °C,CCCCC(=O)Nc1ccc(N)cc1
14,201 to 202 °C,CC(=O)NCC1CN(c2ccc(N3CCN(c4nc5cccc(F)c5o4)CC3)c(F)c2)C(=O)O1 (centres undefined)
15,139 °C,CCOC(=O)C(NC(=O)NC)C(=O)OCC
16,94 to 95 °C,CCN(CC)CCOc1ccc2cc3ccc(OCCN(CC)CC)cc3nc2c1
17,131 °C,Cc1cccc(C)c1NC(=O)CCCl
18,213 to 217 °C,Cc1ccc(-c2ccc(S(=O)(=O)N3CCN(C(=O)C4CCN(c5ccncc5)CC4)CC3)cc2)cc1
19,118 to 119 °C,CCOC(=O)C1CCc2c(sc3nc(CN4C(=O)COC4=O)c(Cl)c(-c4ccc(OC)cc4)c23)C1 (centres undefined)
20,129 to 131 °C,CCc1nc2c(cnn2CC)c(NC2CCOCC2)c1CNC(=O)c1cccc(C(=O)NCc2ccc(OC)c(-c3cccc(CN4CC5CC4CN5)c3)c2)c1 (centres undefined)
21,177 to 180 °C,CCCc1nc2c(N)nc3cc(-c4cccc(C(=O)N5CCCC5)c4)ccc3c2s1
22,155 to 156 °C,CCOc1nn(Cc2ccc(OCc3nc(-c4ccco4)oc3C)nc2)cc1CC(=O)O
23,208 to 211 °C,CCOCc1nc2c(N)nc3cc(-c4cccnc4)ccc3c2n1CCN1CCNCC1
24,144 to 145 °C,CC(C)Oc1n[nH]c2nc(Oc3ccc(F)cc3F)ncc12
25,68 to 70 °C,CCCCCCCOc1c(OC)cc(N)c2nccc(C)c12
